# Reference: US20130296393A1, “METHOD FOR CONTROLLING CLUBROOT” (ISHIHARA SANGYO KAISHA, LTD., priority 2011, published 2013)
# Legend:
# Type in all cases: in vivo
# Plasmodiophora brassicae [1] = test: Cabbage clubroot control test, pot test, cyazofamid vs chlorothalonil (Example 3 / Comparative Example 3); set-up: key to Disease control value: control value = (1 − treated/control severity) × 100; key to Disease severity: severity = Σ(plants × index 0-4)/(plants × 4) × 100; conditions: for Disease control value / Disease severity: 57 days after settled planting
# Source text: (§1) Disease severity={Σ(number of each index of diseased plants×disease index)/(number of plants surveyed×4)}×100
# (§2) Disease control value={1−(treatment disease severity/control disease severity)}×100
# (§3) 0: No adhesion of clubroot, 1: clubroot adhesion to lateral root, 2: clubroot adhesion to the entire lateral root or clubroot adhesion to a part of tap root, 3: adhesion of large clubroot to tap root, and 4: clubroot adhesion to the entire tap root.
# A spore suspension of Plasmodiophora brassicae (fungus density: 1×10^5 fungi/g dry soil) was inoculated into a sterilization soil adjusted to pH of 6.0 with Sandoseto and after introducing the resulting test soil into a 1/5000 a pot, a cabbage (variety: Okina) seedling grown in a cell seedling tray (128 cells/seedling box) was settled-planted by establishing five plantings for each test section having a size of 0.02 m^2 for one plant. Immediately, 4 days, 7 days and 14 days after settled planting, the chemical solution for spraying prepared by the same method as in Example 1(1) was drenched into the soil in a ratio of 250 ml/plant. Fifty-seven days after the settled planting, the number of each index of clubroot adhesion to the root was investigated. For comparison, the same test was carried out on a control section where a soil drench treatment with the chemical solution for spraying was not applied.
# A chemical solution for spraying in a concentration of 800 ppm was prepared by diluting 40% chlorothalonil (Daconil 1000 [trade name], manufactured by SDS K.K.) with water.
# The test was carried out by the same procedure as in Example 3 except that the chemical solution (cyazofamid) for spraying was replaced by the chemical solution (chlorothalonil) for spraying prepared in Comparative Example 3(1).
# (§4) The disease severity and disease control value of Example 3 and Comparative Example 3 were determined by the same methods as in Example 1 and Comparative Example 1. In addition, the weight of cabbage in the aerial part was measured. Furthermore, the test result was shown by the average value of five plantings.
# Plasmodiophora brassicae [2] = test: Influence of rainfall on clubroot control effect in cabbage (Example 4 / Comparative Example 4); conditions: pot; for Weight in the aerial part / Disease control value / Disease severity: 0.3% dust formulation 30 kg/10 a soil incorporation just before settled planting; for Disease control value / Disease severity: 67 days after settled planting
# Procedure: as §1, §2, §3
# The test was carried out by the same method as in Example 3 except for preparing an area subjected to a rainfall treatment of 20 mm by means of a rainfall apparatus (a treatment at a rate of 10 mm/hour for 2 hours) the day before treatment, and an area not subjected to the rainfall treatment. Sixty-seven days after the settled planting, the number of each index of clubroot adhesion to the root was investigated. For comparison, the same test was carried out on a control section where a soil drench treatment with the chemical solution for spraying was not applied.
# (§5) The test was carried out by the same method as in Example 4 except that in place of the soil drench treatment with the chemical solution for spraying, 30 kg/10 a of 0.3% flusulfamide (dust formulation of Nebijin [trade name], manufactured by Mitsui Chemicals Agro, Inc.) was applied to the test soil just before the settled planting and incorporated into the soil by means of a small mixer (interfusion depth: 15 cm).
# as §4, with “4” for “3”
# Plasmodiophora brassicae [3] = test: Cabbage clubroot control test, pot test (Example 1 / Comparative Example 1); conditions: 0.3% dust formulation 30 kg/10 a soil incorporation just before settled planting
# Procedure: A chemical solution for spraying at 50 ppm was prepared by diluting 9.4% w/w cyazofamid (Ranman [trade name] flowable, manufactured by Ishihara Sangyo Kaisha Ltd.) with water.
# A spore suspension of Plasmodiophora brassicae (fungus density: 1×10^5 fungi/g dry soil) was inoculated into a sterilization soil adjusted to pH of 6.2 with Sandoseto and after introducing the resulting test soil into a 1/5000 a pot, a cabbage (variety: Okina) seedling grown in a cell seedling tray (128 cells/seedling box) was settled-planted by establishing five plantings for each test section having a size of 0.02 m^2 per one plant. Just after the settled planting, 3 days, 7 days, 10 days and 14 days after the settled planting, the chemical solution for spraying prepared in (1) was applied by soil drench at a ratio of 250 ml/plant. Sixty days after the settled planting, the number of each index of clubroot adhesion to the root was investigated. For comparison, the same test was carried out on a control section where a soil drench treatment with the chemical solution for spraying was not applied.
# as §5, with “1(2)” for “4”, “before” for “before the”
# In Example 1 and Comparative Example 1, the adhesion of clubroot was investigated by pulling out the root of cabbage. The adhesion of clubroot was investigated by calculating the disease severity using the following formula. In addition, the weight of cabbage in the aerial part was measured. Furthermore, the test result was shown by the average value of five plantings.
# as §1, §2, §3
# [4] = 800 ppm soil drench 250 ml/plant 4 days after settled planting
# [5] = 800 ppm soil drench 250 ml/plant 7 days after settled planting
# [6] = 800 ppm soil drench 250 ml/plant 14 days after settled planting
# [7] = 800 ppm soil drench 250 ml/plant just after settled planting
# [8] = 800 ppm soil drench after settled planting
# [9] = with rainfall treatment, dust formulation soil incorporation just before settled planting
smiles,measurement,setting,value
N#Cc1c(Cl)c(Cl)c(Cl)c(C#N)c1Cl [chlorothalonil],Weight in the aerial part,Plasmodiophora brassicae [1]; [4],92 g
same,Disease control value,Plasmodiophora brassicae [1]; [4],25
same,Disease severity,Plasmodiophora brassicae [1]; [4],60
same,Weight in the aerial part,Plasmodiophora brassicae [1]; [5],69 g
same,Disease control value,Plasmodiophora brassicae [1]; [5],0
same,Disease severity,Plasmodiophora brassicae [1]; [5],90
same,Weight in the aerial part,Plasmodiophora brassicae [1]; [6],70 g
same,Disease control value,Plasmodiophora brassicae [1]; [6],0
same,Disease severity,Plasmodiophora brassicae [1]; [6],90
same,Weight in the aerial part,Plasmodiophora brassicae [1]; [7],96 g
same,Disease control value,Plasmodiophora brassicae [1]; [7],56
same,Disease severity,Plasmodiophora brassicae [1]; [7],35
same,Control effect,Plasmodiophora brassicae [1]; [8],a control effect which is sufficient for practical use was not obtained
same,Effect of the disease on weight in the aerial part,Plasmodiophora brassicae [1]; [8],greatly affected by the disease
O=[N+]([O-])c1ccc(NS(=O)(=O)c2ccc(Cl)c(C(F)(F)F)c2)c(Cl)c1 [flusulfamide],Weight in the aerial part,Plasmodiophora brassicae [2]; with rainfall treatment 20 mm,104 g
same,Disease control value,Plasmodiophora brassicae [2]; with rainfall treatment 20 mm,50
same,Disease severity,Plasmodiophora brassicae [2]; with rainfall treatment 20 mm,35
same,Control effect,Plasmodiophora brassicae [2]; [9],a practical control effect was not obtained
same,Effect of the disease on weight in the aerial part,Plasmodiophora brassicae [2]; [9],greatly affected by the disease
same,Weight in the aerial part,Plasmodiophora brassicae [2]; without rainfall treatment,118 g
same,Disease control value,Plasmodiophora brassicae [2]; without rainfall treatment,100
same,Disease severity,Plasmodiophora brassicae [2]; without rainfall treatment,0
same,Weight in the aerial part,Plasmodiophora brassicae [3],173 g
same,Disease control value,Plasmodiophora brassicae [3]; 60 days after settled planting,100
same,Disease severity,Plasmodiophora brassicae [3]; 60 days after settled planting,0
